Patent US8450361B2, “Substituted indole and azaindole oxoacetyl piperazinamide derivatives” (priority 2010, dated 2013)

What follows are compounds tested on HIV-1 (assay: Single-round infectious HIV-1 luciferase reporter virus infection of HeLa CD4 cells). Settings: Human immunodeficiency virus 1, HeLa, 72 h, read-out: EC50 Group from Table 1.
Assay type: cell-based
Procedure: • Virus production—Human embryonic Kidney cell line, 293T, was propagated in Dulbecco's Modified Eagle Medium (Invitrogen, Carlsbad, Calif.) containing 10% fetal Bovine serum (FBS, Sigma, St. Louis, Mo.). • Virus infection—Human epithelial cell line, HeLa, expressing the HIV-1 receptor CD4 was propagated in Dulbecco's Modified Eagle Medium (Invitrogen, Carlsbad, Calif.) containing 10% fetal Bovine serum (FBS, Sigma, St. Louis, Mo.) and supplemented with 0.2 mg/mL Geneticin (Invitrogen, Carlsbad, Calif.). Virus—Single-round infectious reporter virus was produced by co-transfecting human embryonic Kidney 293 cells with an HIV-1 envelope DNA expression vector and a proviral cDNA containing an envelope deletion mutation and the luciferase reporter gene inserted in place of HIV-1 nef sequences (Chen et al, Ref 41). Transfections were performed using lipofectAMINE PLUS reagent as described by the manufacturer (Invitrogen, Carlsbad, Calif.). Experiment • 1. HeLa CD4 cells were plated in 96 well plates at a cell density of 1×10^4 cells per well in 100 μl Dulbecco's Modified Eagle Medium containing 10% fetal Bovine serum and incubated overnight. • 2. Compound was added in a 2 μl dimethylsulfoxide solution, so that the final assay concentration would be ≦10 μM. • 3. 100 μl of single-round infectious reporter virus in Dulbecco's Modified Eagle Medium was then added to the plated cells and compound at an approximate multiplicity of infection (MOI) of 0.01, resulting in a final volume of 200 μl per well. • 4. Virally-infected cells were incubated at 37 degrees Celsius, in a CO2 incubator, and harvested 72 h after infection. • 5. Viral infection was monitored by measuring luciferase expression from viral DNA in the infected cells using a luciferase reporter gene assay kit, as described by the manufacturer (Roche Molecular Biochemicals, Indianapolis, Ind.). Infected cell supernatants were removed and 50 μl of lysis buffer was added per well. After 15 minutes, 50 μl of freshly-reconstituted luciferase assay reagent was added per well. Luciferase activity was then quantified by measuring luminescence using a Wallac microbeta scintillation counter. • 6. The percent inhibition for each compound was calculated by quantifying the level of luciferase expression in cells infected in the presence of each compound as a percentage of that observed for cells infected in the absence of compound and subtracting such a determined value from 100. • 7. An EC50 provides a method for comparing the antiviral potency of the compounds of this invention. The effective concentration for fifty percent inhibition (EC50) was calculated with the Microsoft Excel Xlfit curve fitting software. For each compound, curves were generated from percent inhibition calculated at 10 different concentrations by using a four parameter logistic model (model 205). Table 1 is the key for the data in Table 2. Results

Structure (SMILES)	EC50 [nM]
N#CC(=C1CCN(C(=O)C(=O)c2c[nH]c3c(NC(=O)NCCC(=O)O)cccc23)CC1)c1ccccc1 [P-I-3]	< 1000
CCOC(=O)CCCNC(=O)Nc1cccc2c(C(=O)C(=O)N3CCC(=C(C#N)c4ccccc4)CC3)c[nH]c12 [P-C-6]	< 1000
C[C@@H]1CN(C(=O)c2ccccc2)CCN1C(=O)C(=O)c1c[nH]c2c(NC(=O)CN(C)C)cccc12 [P-A-3]	< 1000
C[C@@H]1CN(C(=O)c2ccccc2)CCN1C(=O)C(=O)c1c[nH]c2c(NC(=O)NCCCCCCCCNC(=O)Nc3cccc(B(O)O)c3)cccc12 [P-C-114]	< 1000
C[C@@H]1CN(C(=O)c2ccccc2)CCN1C(=O)C(=O)c1c[nH]c2c(NC(=O)NCCCCCC(=O)O)cccc12 [P-I-6]	< 1000
CCOC(=O)c1cccc(NC(=O)Nc2cccc3c(C(=O)C(=O)N4CCC(=C(C#N)c5ccccc5)CC4)c[nH]c23)c1 [P-C-13]	< 1000
CC(=O)Nc1ccc(F)c2c(C(=O)C(=O)N3CC/C(=C(\C#N)c4ccccc4)CC3C)c[nH]c12 (stereo not drawn) [P-B-3]	< 1000
Cc1ccc(S(=O)(=O)Nc2cccc3c(C(=O)C(=O)N4CCN(C(=O)c5ccccc5)C[C@H]4C)c[nH]c23)cc1 [P-E-3]	1000 to 5000
C[C@@H]1CN(C(=O)c2ccccc2)CCN1C(=O)C(=O)c1c[nH]c2c(NC(=O)Nc3ccccc3C(=O)O)cccc12 [P-I-9]	< 1000
CCOC(=O)CNC(=O)Nc1cccc2c(C(=O)C(=O)N3CCN(C(=O)c4ccccc4)C[C@H]3C)c[nH]c12 [P-C-1]	< 1000
COC(=O)CCC(=O)Nc1cccc2c(C(=O)C(=O)N3CCN(C(=O)c4ccccc4)C[C@H]3C)c[nH]c12 [P-A-7]	< 1000
COC(=O)[C@@H]1OC(C)(C)O[C@H]1C(=O)Nc1cccc2c(C(=O)C(=O)N3CCN(C(=O)c4ccccc4)C[C@H]3C)c[nH]c12 [P-A-15]	< 1000
C[C@@H]1CN(C(=O)c2ccccc2)CCN1C(=O)C(=O)c1c[nH]c2c(NC(=O)c3ccccn3)cccc12 [P-A-20]	< 1000
O=C(O)CCCNC(=O)Nc1ncc(F)c2c(C(=O)C(=O)N3CCN(C(=O)c4ccccc4)CC3)c[nH]c12 [P-I-16]	< 1000
C[C@@H]1CN(C(=O)c2ccccc2)CCN1C(=O)C(=O)c1c[nH]c2c(NC(=O)C[N+](C)(C)C)cccc12 [P-A-2]	< 1000
C[C@@H]1CN(C(=O)c2ccccc2)CCN1C(=O)C(=O)c1c[nH]c2c(NC(=O)NC3CCN(C(=O)C(F)(F)F)CC3)cccc12 [P-C-24]	< 1000
C[C@@H]1CN(C(=O)c2ccccc2)CCN1C(=O)C(=O)c1c[nH]c2c(NC(=O)NCCCCCCNC(=O)Nc3ccc(B(O)O)cc3)cccc12 [P-C-106]	< 1000
C[C@@H]1CN(C(=O)c2ccccc2)CCN1C(=O)C(=O)c1c[nH]c2c(NC(=O)[C@@H]3OC(C)(C)O[C@H]3C(=O)O)cccc12 [P-A-16]	< 1000
CCOC(=O)CCCCCNC(=O)Nc1cccc2c(C(=O)C(=O)N3CCN(C(=O)c4ccccc4)C[C@H]3C)c[nH]c12 [P-C-7]	< 1000
C[C@@H]1CN(C(=O)c2ccccc2)CCN1C(=O)C(=O)c1c[nH]c2c(NC(=O)[C@H]3OC(C)(C)O[C@@H]3C(=O)O)cccc12 [P-A-14]	< 1000
CCN(CC)S(=O)(=O)c1ccc(NC(=O)Nc2cccc3c(C(=O)C(=O)N4CCC(=C(C#N)c5ccccc5)CC4)c[nH]c23)cc1 [P-C-21]	< 1000
N#CC(=C1CCN(C(=O)C(=O)c2c[nH]c3c(NC(=O)Nc4ccc(S(=O)(=O)O)cc4)cccc23)CC1)c1ccccc1 [P-C-20]	< 1000
C[C@@H]1CN(C(=O)c2ccccc2)CCN1C(=O)C(=O)c1c[nH]c2c(NC(=O)NCCCCCCNC(=O)Nc3cccc(B(O)O)c3)cccc12 [P-C-113]	< 1000
C[C@@H]1CN(C(=O)c2ccccc2)CCN1C(=O)C(=O)c1c[nH]c2c(NC(=O)C(=O)O)cccc12 [P-A-18]	< 1000
COC(=O)c1cc(NC(=O)Nc2cccc3c(C(=O)C(=O)N4CCN(C(=O)c5ccccc5)C[C@H]4C)c[nH]c23)cc(C(=O)OC)c1 [P-C-16]	< 1000
C[C@@H]1CN(C(=O)c2ccccc2)CCN1C(=O)C(=O)c1c[nH]c2c(NC(=O)Nc3ccc(C#N)cc3)cccc12 [P-C-22]	< 1000
N#CC(=C1CCN(C(=O)C(=O)c2c[nH]c3c(NC(=O)Nc4cc(C(=O)O)cc(C(=O)O)c4)cccc23)CC1)c1ccccc1 [P-I-15]	< 1000

Structure (SMILES)	EC50 [nM]
CNCCCN(C)CCN1CCN(c2cccc3c(C(=O)C(=O)N4CCN(C(=O)c5ccccc5)C[C@H]4C)c[nH]c23)C1=O [P-H-3]	< 1000
N#CC(=C1CCN(C(=O)C(=O)c2c[nH]c3c(NC(=O)Nc4ccc(C#N)cc4)cccc23)CC1)c1ccccc1 [P-C-23]	< 1000
C[C@@H]1CN(C(=O)c2ccccc2)CCN1C(=O)C(=O)c1c[nH]c2c(NC(=O)c3ccno3)cccc12 [P-A-21]	< 1000
N#CC(=C1CCN(C(=O)C(=O)c2c[nH]c3c(N4C(=O)N[C@@H](CCC(=O)O)C4=O)cccc23)CC1)c1ccccc1 [P-I-17]	< 1000
CCOC(=O)CCCNC(=O)Nc1cccc2c(C(=O)C(=O)N3CCN(C(=O)c4ccccc4)C[C@H]3C)c[nH]c12 [P-C-5]	< 1000
Cc1ccc(S(=O)(=O)Nc2cccc3c(C(=O)C(=O)N4CCN(C(=O)c5ccccc5)C[C@H]4C)cn(S(=O)(=O)c4ccc(C)cc4)c23)cc1 [P-E-4]	< 1000
CC(=O)Nc1cccc2c(C(=O)C(=O)N3CCN(C(=O)c4ccccc4)C[C@H]3C)c[nH]c12 [P-A-5]	< 1000
C[C@@H]1CN(C(=O)c2ccccc2)CCN1C(=O)C(=O)c1c[nH]c2c(NC(=O)Nc3cccc(B(O)O)c3)cccc12 [P-C-202]	< 1000
C[C@@H]1CN(C(=O)c2ccccc2)CCN1C(=O)C(=O)c1c[nH]c2c(NC(=O)Nc3ccc(S(=O)(=O)O)cc3)cccc12 [P-C-19]	< 1000
CC(=O)OCC(=O)Nc1cccc2c(C(=O)C(=O)N3CCN(C(=O)c4ccccc4)C[C@H]3C)c[nH]c12 [P-A-4]	< 1000
C[C@@H]1CN(C(=O)c2ccccc2)CCN1C(=O)C(=O)c1c[nH]c2c(NC(=O)NCCOCCOCCNC(=O)c3ccc(B(O)O)cc3)cccc12 [P-C-402]	< 1000
C[C@@H]1CN(C(=O)c2ccccc2)CCN1C(=O)C(=O)c1cn(S(C)(=O)=O)c2c(NS(C)(=O)=O)cccc12 [P-E-2]	< 1000
C[C@@H]1CN(C(=O)c2ccccc2)CCN1C(=O)C(=O)c1c[nH]c2c(NC(=O)CCC(=O)O)cccc12 [P-A-8]	< 1000
C[C@@H]1CN(C(=O)c2ccccc2)CCN1C(=O)C(=O)c1c[nH]c2c(NC(=O)CNC(C)(C)C)cccc12 [P-A-1]	< 1000
CCOC(=O)c1ccc(NC(=O)Nc2cccc3c(C(=O)C(=O)N4CCN(C(=O)c5ccccc5)C[C@H]4C)c[nH]c23)cc1 [P-C-14]	< 1000
CCOC(=O)c1ccc(NC(=O)Nc2cccc3c(C(=O)C(=O)N4CCC(=C(C#N)c5ccccc5)CC4)c[nH]c23)cc1 [P-C-15]	< 1000
C[C@@H]1CN(C(=O)c2ccccc2)CCN1C(=O)C(=O)c1c[nH]c2c(NC(=O)c3cccc(B(O)O)c3)cccc12 [P-A-22]	< 1000
C[C@@H]1CN(C(=O)c2ccccc2)CCN1C(=O)C(=O)c1c[nH]c2c(NC(=O)NCCCC(=O)O)cccc12 [P-I-4]	< 1000
CCOC(=O)CCCCCNC(=O)Nc1cccc2c(C(=O)C(=O)N3CCC(=C(C#N)c4ccccc4)CC3)c[nH]c12 [P-C-8]	< 1000
C[C@@H]1CN(C(=O)c2ccccc2)CCN1C(=O)C(=O)c1c[nH]c2c(NC(=O)NCCCCNC(=O)Nc3ccc(B(O)O)cc3)cccc12 [P-C-103]	< 1000
CC(C)COC(=O)Nc1cccc2c(C(=O)C(=O)N3CCN(C(=O)c4ccccc4)C[C@H]3C)c[nH]c12 [P-D-1]	< 1000
CCOC(=O)CC[C@@H]1NC(=O)N(c2cccc3c(C(=O)C(=O)N4CCC(=C(C#N)c5ccccc5)CC4)c[nH]c23)C1=O [P-G-3]	< 1000
CC/N=C(\NCCCN(C)C)Nc1cccc2c(C(=O)C(=O)N3CCN(C(=O)c4ccccc4)C[C@H]3C)c[nH]c12 [P-F-2]	< 1000
N#CC(=C1CCN(C(=O)C(=O)c2c[nH]c3c(NC(=O)NC(CCC(=O)O)C(=O)O)cccc23)CC1)c1ccccc1 (stereo not drawn) [P-I-8]	< 1000
CC(=O)Nc1ccc(F)c2c(C(=O)C(=O)N3CC/C(=C(\C#N)c4cccnc4)CC3C)c[nH]c12 (stereo not drawn) [P-B-7]	< 1000
CCOC(=O)c1ccccc1NC(=O)Nc1cccc2c(C(=O)C(=O)N3CCN(C(=O)c4ccccc4)C[C@H]3C)c[nH]c12 [P-C-10]	< 1000
CCOC(=O)c1ccccc1NC(=O)Nc1cccc2c(C(=O)C(=O)N3CCC(=C(C#N)c4ccccc4)CC3)c[nH]c12 [P-C-11]	< 1000
